Data published in patent US20200138764A1, “METHODS AND DEVICES FOR ACTIVATING ADIPOSE TISSUE” (The Procter & Gamble Company, priority 2018, published 2020).

What was measured:
adipocyte = assay: In vivo browning study in lean mice: Fat % by image analysis of H&E stained tissue; design: species or system Mice (C57BJ/6)
Procedure: (§1) Mice (8-10 weeks old males C57BJ/6 strain) were obtained from a commercial vendor Charles River Laboratories. The animal study protocols were approved by the Institutional Animal Care and Use Committee, at the Procter & Gamble Company. Mice were acclimated to the facility for 14 days prior to initiating the study. From arrival, mice were housed in solid-bottom shoebox styled cages within room temperature of 22±2° C. with ad libitum access to water and regular rodent chow diet on a 12 h light/dark cycle. Mice were single housed and offered bedding and various enrichment options. The bedding and nesting material allowed the mice to thermoregulate to their desired level of comfort. Body weights were recorded at the beginning of the study, on each dosing day prior to dosing, and final weights were recorded at the end of the study. Overall food consumption, fecal output, and body appearance were monitored during cage side clinical observations but were not scientifically measured or tracked. During the dosing period, the animals were observed several times per day (for example, before and during injection, immediately to 30-min post injection, a few hours after injection, and end of work day).
[…] The injection was performed using a 25-27-gauge ½-⅝″ length needle via a subcutaneous (SC) injection near or into the inguinal fat pad region of the lower abdomen. Dosing was done twice a week injections over 3 weeks. Necropsy was done at week 4. […]
Segments of adipocyte and inter-cellular regions in a stained image were identified by Python […] package. […] The threshold between adipocyte and inter-cellular regions in a converted image was detected by the Otsu filter function of the […]. The detected value was adjusted by multiplying 1.1.
The ratio of adipocyte in an image was calculated from the pixel number of the segments—Adipocyte Pixel was divided by Total Pixel.
The significance of the difference in Adipocyte Ratio between treatment and control groups was assessed by the Negative Binomial Generalized Linear Mixed-Effects Model using glmer.nb function of R lme4 package. […]

fat tissue = assay: qPCR biomarker analysis of fat tissue, in vivo; design: species or system Mice (C57BJ/6); conditions: mouse fat tissue, SC injection twice a week over 3 weeks
Procedure: as §1
Three groups of animals were treated with mirabegron (i.e. positive control) (n=4), placebo (n=2) and Formula III (n=6) on the left side while the right side received placebo in all three groups. The injection was performed using a 25-27-gauge ½-⅝″ length needle via a subcutaneous (SC) injection near or into the inguinal fat pad region of the lower abdomen. Dosing was done twice a week injections over 3 weeks. Necropsy was done at week 4. Test materials were administered at room temperature and in a neutral pH range. Three days after last dosing animals were euthanized with CO2 inhalation, inguinal fat pads were harvested, and tissues were processed for histology and biomarker analysis.
The qPCR biomarker analysis was conducted from flash frozen fat tissue from mouse study described above. First, RNA was manually extracted with RNAdvance Tissue kit (Agencourt). RNA was extracted from flash frozen fat tissue according to manufactuer's directions. For example, 5 mm steel beads were placed in the freezer for approximately 15-20 minutes. Next, Qiagen Buffer RLT was cooled to 4° C. for 20 minutes and placed in a 96 well 1.5 mL tube rack for sample transfer. Isopropanol was added to Agencourt wash buffer. 100 mL aliquots of 70% ethanol in water were prepared. The RNA Tissue beads were allowed to warm to 22° C. (˜30 minutes), and then the beads were shaken vigorously and intermittently for at least 15-20 minutes. 1 stainless steel bead was added to a 2 mL round bottom tube stored on dry ice. The tissue sample was then transferred to the 2 mL round bottom tube.
The tube rack was placed on wet ice. Then, the tubes were transferred from dry ice to the rack in wet ice and 350 μL of cold buffer RLT were added to the tubes. The beads were beaten at 30 Hz for 2 minutes. After bead beating, samples were centrifuged for 2 minutes. The supernatant was transferred into 96 well deep well isolation plate.
80 μL of RNATissue beads were combined with 320 μL of isopropanol to create a Bind Buffer. This solution was prepared fresh for each isolation with any unused solution discarded.
400 μL of Bind Buffer was added to the to RLT mixture and slowly mixed. The solution was incubated at room temperature for 10 minutes. Special care was taken to avoid the formation of bubbles while tip mixing.
The mixture was placed on a magnet (96 well plate—Agencourt SPRIPlate) for 6-10 minutes. After the solution became clear, the supernatant was removed from each tube while the tubes remained on the magnet and the solution was discarded.
The tubes were removed from the magnet and the pellets were washed with 800 μL of the Isopropanol Wash Buffer ten times. […]

CC(C)[C@@H]1CC[C@@H](C)C[C@H]1C(=O)NC[C@@H](NC(=O)[C@H](C)N)c1ccccc1 [Formula III]
Average Fat % (Adipocyte Pixel / Total Pixel) (adipocyte; mice, SC injection, Formula III one side and mirabegron other side, high and middle dosage merged, H&E images): 90.81% | treatment effect of reducing the adipocyte ratio (adipocyte; treatment vs control, p-value 0.0278, negative binomial mixed-effects model): statistically significant | Average Fold vs Placebo: AdipoQ (fat tissue): 4.7 | Average Fold vs Placebo: Adrb3 (fat tissue): 18.3 | Average Fold vs Placebo: Cidea (fat tissue): 28.0 | Average Fold vs Placebo: Cox7a1 (fat tissue): 5.7 | Average Fold vs Placebo: Cox8b (fat tissue): 19.0 | Average Fold vs Placebo: Dio2 (fat tissue): 1.8 | Average Fold vs Placebo: Elovl3 (fat tissue): 37.5 | Average Fold vs Placebo: IL6 (fat tissue): 0.8 | Average Fold vs Placebo: Ppargc1 (fat tissue): 3.0 | Average Fold vs Placebo: Prdm16 (fat tissue): 3.5 | Average Fold vs Placebo: Tfap2a (fat tissue): 1.2 | Average Fold vs Placebo: UCP1 (fat tissue): 73.2
